Measurements reported in patent publication US20250320213A1, “Nitrogen-Containing Heterocyclic Compounds” (Pfizer Inc., priority 2024, published 2025).

Key:
STAT6 = molecular target: T1, STAT6 (Homo sapiens, UniProt P42226); assay: STAT6 Reporter Luciferase Assay (IL-13 stimulated HaCaT keratinocyte NanoLuc reporter cells); type: cell-based; details: IL-13 stimulated HaCaT STAT6 NanoLuc reporter cells; read-out: Reporter EC50
T1 construct: stably transfected HaCaT keratinocyte cell line, which expresses NanoLuc luciferase reporter gene under the transcriptional control of the STAT6 responsive promoter; endogenous in cells; host or cells: HaCaT keratinocyte reporter cell line (stably transfected with a NanoLuc reporter)
T1 sequence (P42226 1-847): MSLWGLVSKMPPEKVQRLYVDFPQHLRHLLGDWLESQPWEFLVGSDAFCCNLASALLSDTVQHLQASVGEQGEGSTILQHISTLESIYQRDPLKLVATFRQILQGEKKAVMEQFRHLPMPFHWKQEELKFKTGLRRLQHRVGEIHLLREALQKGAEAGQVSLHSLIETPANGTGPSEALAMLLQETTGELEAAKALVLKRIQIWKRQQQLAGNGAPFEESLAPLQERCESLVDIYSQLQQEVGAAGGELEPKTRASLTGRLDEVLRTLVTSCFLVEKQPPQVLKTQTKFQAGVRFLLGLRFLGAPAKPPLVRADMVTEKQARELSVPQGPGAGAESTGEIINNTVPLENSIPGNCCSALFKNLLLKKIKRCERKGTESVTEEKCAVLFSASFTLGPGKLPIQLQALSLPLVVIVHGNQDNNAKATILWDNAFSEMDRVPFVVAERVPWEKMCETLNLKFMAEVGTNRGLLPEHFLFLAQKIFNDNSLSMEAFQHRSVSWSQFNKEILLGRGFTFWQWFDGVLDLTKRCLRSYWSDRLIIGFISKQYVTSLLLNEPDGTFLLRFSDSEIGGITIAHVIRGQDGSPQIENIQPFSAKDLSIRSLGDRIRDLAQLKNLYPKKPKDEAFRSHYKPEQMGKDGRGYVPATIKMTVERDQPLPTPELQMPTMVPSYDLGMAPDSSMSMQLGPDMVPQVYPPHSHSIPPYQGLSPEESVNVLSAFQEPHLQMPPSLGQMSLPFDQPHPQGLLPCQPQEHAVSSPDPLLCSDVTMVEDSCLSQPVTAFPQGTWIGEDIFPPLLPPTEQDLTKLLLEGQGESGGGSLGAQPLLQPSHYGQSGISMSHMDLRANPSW
Method in brief: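 Compounds were tested as 11-point, 4-fold series in duplicate, applied for 2 h at 37 °C in low-serum (2% FBS) DMEM. The cells were a stable HaCaT line with NanoLuc under a STAT6-responsive IL-13Ra2 promoter. After 4 h with 0.12 nM IL-13, Nano-Glo luminescence was measured.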

[1] = system: CCL17 secretion in peripheral human whole blood; assay: Human Whole Blood (HWB) CCL17 TR-FRET Assay (IL-13 stimulated CCL17 secretion); type: cell-based; details: Homo sapiens, 48 h, human whole blood, 10 ng/mL IL13, 48 hours
Method in brief: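 Measured here: CCL17 in serum by TR-FRET (665/615 nm) after overnight (16 h) room-temperature detection. The blood, heparinized and compound-treated for 2 h, received IL-13 at 10 ng/mL final and was cultured 48 h at 37 °C.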

Row | EC50 (STAT6) [nM] | IC50 [1] [nM] | SMILES
1 | 2 | 13 | CN[C@@H]1CCCN(C(=O)Nc2ccc(CNC(=O)c3nn(C(C)C)c4c3CN(c3ccc(C(=O)N(C)C)cc3)C[C@@H]4C)cc2F)C1 [Example 568, (S)-5-(4-(dimethylcarbamoyl)phenyl)-N-(3-fluoro-4-((R)-3-(methylamino)piperidine-1-carboxamido)benzyl)-1-isopropyl-7-methyl-4,5,6,7-tetrahydro-1H-pyrazolo[4,3-c]pyridine-3-carboxamide]
2 | 4 | 20 | CN[C@H]1CCCN(C(=O)Nc2ccc(CNC(=O)c3nn(C(C)C)c4c3CN(c3ccc(C(=O)N(C)C)cc3)C[C@@H]4C)cc2F)C1 [Example 569, (S)-5-(4-(dimethylcarbamoyl)phenyl)-N-(3-fluoro-4-((S)-3-(methylamino)piperidine-1-carboxamido)benzyl)-1-isopropyl-7-methyl-4,5,6,7-tetrahydro-1H-pyrazolo[4,3-c]pyridine-3-carboxamide]
3 | 3 | 27 | CC(C)n1nc(C(=O)NCc2ccc(NC(=O)N3CC[C@](C)(N)C3)cc2)c2c1[C@@H](C)CN(c1ccc(C(=O)N(C)C)cc1)C2 [Example 570, (S)-N-(4-((S)-3-amino-3-methylpyrrolidine-1-carboxamido)benzyl)-5-(4-(dimethylcarbamoyl)phenyl)-1-isopropyl-7-methyl-4,5,6,7-tetrahydro-1H-pyrazolo[4,3-c]pyridine-3-carboxamide]
4 | 4 | 20 | CN[C@H]1CCN(C(=O)Nc2ccc(CNC(=O)c3nn(C(C)C)c4c3CN(c3ccc(C(=O)N(C)C)cc3)C[C@@H]4C)cc2)C1 [Example 571, (S)-5-(4-(dimethylcarbamoyl)phenyl)-1-isopropyl-7-methyl-N-(4-((S)-3-(methylamino)pyrrolidine-1-carboxamido)benzyl)-4,5,6,7-tetrahydro-1H-pyrazolo[4,3-c]pyridine-3-carboxamide]
5 | 3 | 20 | CC(C)n1nc(C(=O)NCc2ccc(NC(=O)N3CC[C@@](C)(N)C3)cc2)c2c1[C@@H](C)CN(c1ccc(C(=O)N(C)C)cc1)C2 [Example 572, (S)-N-(4-((R)-3-amino-3-methylpyrrolidine-1-carboxamido)benzyl)-5-(4-(dimethylcarbamoyl)phenyl)-1-isopropyl-7-methyl-4,5,6,7-tetrahydro-1H-pyrazolo[4,3-c]pyridine-3-carboxamide]
6 | 0.5 | 11 | CC(C)n1nc(C(=O)NCc2ccc(NC(=O)N3CCN4CCC[C@@H]4C3)cc2)c2c1[C@@H](C)CN(c1ccc(C(=O)N(C)C)cc1)C2 [Example 574, (S)-5-(4-(dimethylcarbamoyl)phenyl)-1-isopropyl-7-methyl-N-(4-((R)-octahydropyrrolo[1,2-a]pyrazine-2-carboxamido)benzyl)-4,5,6,7-tetrahydro-1H-pyrazolo[4,3-c]pyridine-3-carboxamide]
7 | 1 | 10 | CC(C)n1nc(C(=O)NCc2ccc(NC(=O)N3CCN4CCC[C@H]4C3)cc2)c2c1[C@@H](C)CN(c1ccc(C(=O)N(C)C)cc1)C2 [Example 575, (S)-5-(4-(dimethylcarbamoyl)phenyl)-1-isopropyl-7-methyl-N-(4-((S)-octahydropyrrolo[1,2-a]pyrazine-2-carboxamido)benzyl)-4,5,6,7-tetrahydro-1H-pyrazolo[4,3-c]pyridine-3-carboxamide]
8 | 4 | 19 | CC(C)n1nc(C(=O)NCc2ccc(NC(=O)N3CCCNCC3)c(F)c2)c2c1[C@@H](C)CN(c1ccc(C(=O)N(C)C)cc1)C2 [Example 576, (S)-N-(4-(1,4-diazepane-1-carboxamido)-3-fluorobenzyl)-5-(4-(dimethylcarbamoyl)phenyl)-1-isopropyl-7-methyl-4,5,6,7-tetrahydro-1H-pyrazolo[4,3-c]pyridine-3-carboxamide]
9 | 1 | 4 | COC[C@H]1CN(C(=O)Nc2ccc(CNC(=O)c3nn(C(C)C)c4c3CN(c3ccc(C(=O)N(C)C)cc3)C[C@@H]4C)cc2)CCN1 [Example 577, (S)-5-(4-(dimethylcarbamoyl)phenyl)-1-isopropyl-N-(4-((R)-3-(methoxymethyl)piperazine-1-carboxamido)benzyl)-7-methyl-4,5,6,7-tetrahydro-1H-pyrazolo[4,3-c]pyridine-3-carboxamide]
10 | 0.5 | 5 | COC[C@@H]1CN(C(=O)Nc2ccc(CNC(=O)c3nn(C(C)C)c4c3CN(c3ccc(C(=O)N(C)C)cc3)C[C@@H]4C)cc2)CCN1 [Example 578, (S)-5-(4-(dimethylcarbamoyl)phenyl)-1-isopropyl-N-(4-((S)-3-(methoxymethyl)piperazine-1-carboxamido)benzyl)-7-methyl-4,5,6,7-tetrahydro-1H-pyrazolo[4,3-c]pyridine-3-carboxamide]
11 | 0.4 | 8 | CC(C)n1nc(C(=O)NCc2ccc(NC(=O)NCC(F)F)cc2)c2c1[C@@H](C)CN(c1ccc(C(=O)N(C)C)cn1)C2 [Example 579, (S)-N-(4-(3-(2,2-difluoroethyl)ureido)benzyl)-5-(5-(dimethylcarbamoyl)pyridin-2-yl)-1-isopropyl-7-methyl-4,5,6,7-tetrahydro-1H-pyrazolo[4,3-c]pyridine-3-carboxamide]
12 | 1 | 11 | CC(C)n1nc(C(=O)NCc2ccc(NC(=O)N3CCN(C)CC3)c(F)c2)c2c1[C@@H](C)CN(c1ccc(C(=O)N(C)C)cc1)C2 [Example 580, (S)-5-(4-(dimethylcarbamoyl)phenyl)-N-(3-fluoro-4-(4-methylpiperazine-1-carboxamido)benzyl)-1-isopropyl-7-methyl-4,5,6,7-tetrahydro-1H-pyrazolo[4,3-c]pyridine-3-carboxamide]
13 | 3 | 24 | CNC1(C)CN(C(=O)Nc2ccc(CNC(=O)c3nn(C(C)C)c4c3CN(c3ccc(C(=O)N(C)C)cc3)C[C@@H]4C)cc2)C1 [Example 581, (S)-5-(4-(dimethylcarbamoyl)phenyl)-1-isopropyl-7-methyl-N-(4-(3-methyl-3-(methylamino)azetidine-1-carboxamido)benzyl)-4,5,6,7-tetrahydro-1H-pyrazolo[4,3-c]pyridine-3-carboxamide]
14 | 1 | 17 | CC(C)n1nc(C(=O)NCc2ccc(NC(=O)N3CCCC3)cc2)c2c1[C@@H](C)CN(c1ccc(C(=O)N(C)C)cn1)C2 [Example 583, (S)-5-(5-(dimethylcarbamoyl)pyridin-2-yl)-1-isopropyl-7-methyl-N-(4-(pyrrolidine-1-carboxamido)benzyl)-4,5,6,7-tetrahydro-1H-pyrazolo[4,3-c]pyridine-3-carboxamide]
15 | 1 | 12 | CC(C)n1nc(C(=O)NCc2ccc(NC(=O)N3CC(F)C3)cc2)c2c1[C@@H](C)CN(c1ccc(C(=O)N(C)C)cn1)C2 [Example 584, (S)-5-(5-(dimethylcarbamoyl)pyridin-2-yl)-N-(4-(3-fluoroazetidine-1-carboxamido)benzyl)-1-isopropyl-7-methyl-4,5,6,7-tetrahydro-1H-pyrazolo[4,3-c]pyridine-3-carboxamide]
16 | 6 | 37 | CC(C)n1nc(C(=O)NCc2ccc(NC(=O)C3CCN(C)CC3)cc2)c2c1[C@@H](C)CN(c1ccc(C(=O)N(C)C)cc1)C2 [Example 585, (S)-5-(4-(dimethylcarbamoyl)phenyl)-1-isopropyl-7-methyl-N-(4-(1-methylpiperidine-4-carboxamido)benzyl)-4,5,6,7-tetrahydro-1H-pyrazolo[4,3-c]pyridine-3-carboxamide]
17 | 6 | 58 | CC(C)n1nc(C(=O)NCc2ccc(NC(=O)C3(F)CCN(C)CC3)cc2)c2c1[C@@H](C)CN(c1ccc(C(=O)N(C)C)cc1)C2 [Example 586, (S)-5-(4-(dimethylcarbamoyl)phenyl)-N-(4-(4-fluoro-1-methylpiperidine-4-carboxamido)benzyl)-1-isopropyl-7-methyl-4,5,6,7-tetrahydro-1H-pyrazolo[4,3-c]pyridine-3-carboxamide]
